Laboratory results: the supplement of paper PMC10307832

Assays:
Assay in all cases: relative viability (nuclei count vs DMSO), 5 days (fraction); higher = more cells survive
[1] = compound: C[C@@]1(C(=O)Nc2ccc(F)nc2)CCCN1c1nc(Nc2cc(C3CC3)n[nH]2)c2cccn2n1 + Nc1nc2[nH]cc(CCc3ccc(C(=O)N[C@@H](CCC(=O)O)C(=O)O)cc3)c2c(=O)[nH]1 [Pemetrexed] (partner 0.2 µM)
Summary of the method: (§1)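 For relative viability, nuclei counts in treated wells were divided by those in vehicle wells. Lung cancer cell lines had been pin-tool dosed in 1536-well plates the day after seeding and cultured for 5 days, then fixed and stained in one step (final 0.05% Triton X-100, 1% formaldehyde, 1 ug/ml Hoechst) and imaged at 4×. Doses were one drug alone or a fixed anchor-drug dose plus five library-drug doses (not always all listed) in √10 steps, and values are duplicate-plate medians.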

[2] = compound: C[C@@]1(C(=O)Nc2ccc(F)nc2)CCCN1c1nc(Nc2cc(C3CC3)n[nH]2)c2cccn2n1 + CC(=O)Nc1cccc(-n2c(=O)n(C3CC3)c(=O)c3c(Nc4ccc(I)cc4F)n(C)c(=O)c(C)c32)c1 [Trametinib] (partner 0.02 µM)
Summary of the method: as §1

[3] = compound: C[C@@]1(C(=O)Nc2ccc(F)nc2)CCCN1c1nc(Nc2cc(C3CC3)n[nH]2)c2cccn2n1 + COc1cc2c(Oc3ccc(NC(=O)C4(C(=O)Nc5ccc(F)cc5)CC4)cc3F)ccnc2cc1OCCCN1CCOCC1 [Foretinib] (partner 0.25 µM)
Summary of the method: as §1

Motesanib + Pemetrexed = compound: CC1(C)CNc2cc(NC(=O)c3cccnc3NCc3ccncc3)ccc21 [Motesanib] + Nc1nc2[nH]cc(CCc3ccc(C(=O)N[C@@H](CCC(=O)O)C(=O)O)cc3)c2c(=O)[nH]1 [Pemetrexed] (partner 0.2 µM)
Summary of the method: as §1

Cell Line | relative viability ([1]; first compound 0.04 µM) | relative viability ([1]; first compound 0.1265 µM) | relative viability ([1]; first compound 0.4 µM) | relative viability ([1]; first compound 1.265 µM) | relative viability ([2]; first compound 0.04 µM) | relative viability ([2]; first compound 0.1265 µM) | relative viability ([2]; first compound 0.4 µM) | relative viability ([2]; first compound 1.265 µM) | relative viability ([3]; first compound 0.04 µM) | relative viability ([3]; first compound 0.1265 µM) | relative viability ([3]; first compound 0.4 µM) | relative viability ([3]; first compound 1.265 µM) | relative viability (Motesanib + Pemetrexed; first compound 0.01 µM) | relative viability (Motesanib + Pemetrexed; first compound 0.03162 µM) | relative viability (Motesanib + Pemetrexed; first compound 0.1 µM) | relative viability (Motesanib + Pemetrexed; first compound 0.3162 µM) | relative viability (Motesanib + Pemetrexed; first compound 1 µM)
NCI-H2126 | 0.622 | 0.463 | 0.379 | 0.465 | 0.447 | 0.346 | 0.336 | 0.415 | 0.885 | 0.661 | 0.485 | 0.865 | 0.683 | 0.715 | 0.615 | 0.695 | 0.655
LXF-289 | 0.9 | 0.921 | 0.804 | 0.859 | 0.67 | 0.619 | 0.645 | 0.717 | 0.949 | 0.945 | 0.937 | 0.991 | 0.704 | 0.845 | 0.898 | 0.896 | 0.57
NCI-H2009 | 1.07 | 1.01 | 1.01 | 1.03 | 0.297 | 0.314 | 0.235 | 0.243 | 1.23 | 1.25 | 1.1 | 1.14 | 0.949 | 1.02 | 1.01 | 1.06 | 0.973
NCI-H2405 | 0.8 | 0.905 | 0.819 | 0.614 | 0.461 | 0.382 | 0.353 | 0.381 | 0.866 | 0.818 | 0.742 | 0.77 | 1.05 | 1.11 | 1.02 | 1.11 | 1.02
NCI-H1755 | 0.444 | 0.408 | 0.39 | 0.377 | 0.661 | 0.692 | 0.734 | 0.744 | 0.914 | 0.729 | 0.85 | 0.89 | 0.403 | 0.356 | 0.38 | 0.401 | 0.32
HCC-78 | 0.898 | 0.898 | 0.913 | 0.922 | 0.637 | 1.19 | 0.334 | 0.327 | 0.505 | 0.323 | 0.347 | 0.421 | 0.902 | 0.897 | 0.858 | – | 0.906
LOU-NH91 | 0.394 | 0.409 | 0.353 | 0.346 | 0.737 | 0.845 | 0.709 | 0.755 | 0.938 | 0.94 | 0.86 | 0.948 | 0.357 | 0.37 | 0.373 | 0.406 | 0.382
NCI-H3122 | 0.202 | 0.175 | 0.178 | 0.18 | 0.181 | 0.202 | 0.181 | 0.2 | 0.978 | 0.937 | 0.942 | 0.893 | 0.186 | 0.191 | 0.184 | 0.202 | 0.219
HCC-827 | 0.264 | 0.284 | 0.244 | 0.277 | 0.518 | 0.499 | 0.45 | 0.557 | 1.03 | 1.14 | 1.06 | 1.2 | 0.252 | 0.301 | 0.271 | 0.277 | 0.29
SK-LU-1 | 1.07 | 0.833 | 0.778 | 0.85 | 0.45 | 0.413 | 0.421 | 0.469 | 0.782 | 0.546 | 0.602 | 0.575 | 0.961 | 0.806 | 0.547 | 0.417 | 0.347
NCI-H1975 | 0.302 | 0.298 | 0.274 | 0.268 | 0.272 | 0.273 | 0.313 | 0.234 | 0.861 | 0.962 | 0.88 | 0.716 | 0.283 | 0.281 | 0.274 | 0.271 | 0.239
NCI-H1651 | 0.62 | 0.508 | 0.517 | 0.447 | 0.723 | 0.798 | 0.712 | 0.757 | 0.775 | 0.704 | 0.621 | 0.895 | 0.544 | 0.618 | 0.519 | 0.531 | 0.585
NCI-H441 | 0.246 | 0.261 | 0.243 | 0.267 | 0.23 | 0.164 | 0.21 | 0.211 | 0.631 | 0.46 | 0.599 | 0.707 | 0.243 | 0.234 | 0.238 | 0.259 | 0.196
LCLC-103H | 0.49 | 0.509 | 0.44 | 0.41 | 0.668 | 0.613 | 0.62 | 0.69 | 0.597 | 0.491 | 0.422 | 0.637 | 0.458 | 0.435 | 0.429 | 0.505 | 0.458
LCLC-97TM1 | 0.137 | 0.155 | 0.149 | 0.143 | 0.232 | 0.0949 | 0.0995 | 0.13 | 0.31 | 0.292 | 0.278 | 0.499 | 0.175 | 0.153 | 0.151 | 0.16 | 0.173
